For one assay, the target named is BRG-1 (Homo sapiens, UniProt P51532). The assay is described as follows: ATPase catalytic activity assay (ADP-Glo), BRG-1. Conditions: for Emax: 1 h, read-out: BRG1 Max % Inhibition, ADP-Glo, 30 nM BRG-1, 400 μM ATP. (In general: ADP-Glo first removes unused ATP, then detects ADP through luciferase.)
Another assay deals with BRM (Homo sapiens, UniProt P51531). As to the kind of experiment: ATPase catalytic activity assay (ADP-Glo), BRM. Conditions: 30 nM BRM, 400 μM ATP; for IC50: BRM ATPase: IC50 (uM).
Sequence of BRM (P51531 whole entry): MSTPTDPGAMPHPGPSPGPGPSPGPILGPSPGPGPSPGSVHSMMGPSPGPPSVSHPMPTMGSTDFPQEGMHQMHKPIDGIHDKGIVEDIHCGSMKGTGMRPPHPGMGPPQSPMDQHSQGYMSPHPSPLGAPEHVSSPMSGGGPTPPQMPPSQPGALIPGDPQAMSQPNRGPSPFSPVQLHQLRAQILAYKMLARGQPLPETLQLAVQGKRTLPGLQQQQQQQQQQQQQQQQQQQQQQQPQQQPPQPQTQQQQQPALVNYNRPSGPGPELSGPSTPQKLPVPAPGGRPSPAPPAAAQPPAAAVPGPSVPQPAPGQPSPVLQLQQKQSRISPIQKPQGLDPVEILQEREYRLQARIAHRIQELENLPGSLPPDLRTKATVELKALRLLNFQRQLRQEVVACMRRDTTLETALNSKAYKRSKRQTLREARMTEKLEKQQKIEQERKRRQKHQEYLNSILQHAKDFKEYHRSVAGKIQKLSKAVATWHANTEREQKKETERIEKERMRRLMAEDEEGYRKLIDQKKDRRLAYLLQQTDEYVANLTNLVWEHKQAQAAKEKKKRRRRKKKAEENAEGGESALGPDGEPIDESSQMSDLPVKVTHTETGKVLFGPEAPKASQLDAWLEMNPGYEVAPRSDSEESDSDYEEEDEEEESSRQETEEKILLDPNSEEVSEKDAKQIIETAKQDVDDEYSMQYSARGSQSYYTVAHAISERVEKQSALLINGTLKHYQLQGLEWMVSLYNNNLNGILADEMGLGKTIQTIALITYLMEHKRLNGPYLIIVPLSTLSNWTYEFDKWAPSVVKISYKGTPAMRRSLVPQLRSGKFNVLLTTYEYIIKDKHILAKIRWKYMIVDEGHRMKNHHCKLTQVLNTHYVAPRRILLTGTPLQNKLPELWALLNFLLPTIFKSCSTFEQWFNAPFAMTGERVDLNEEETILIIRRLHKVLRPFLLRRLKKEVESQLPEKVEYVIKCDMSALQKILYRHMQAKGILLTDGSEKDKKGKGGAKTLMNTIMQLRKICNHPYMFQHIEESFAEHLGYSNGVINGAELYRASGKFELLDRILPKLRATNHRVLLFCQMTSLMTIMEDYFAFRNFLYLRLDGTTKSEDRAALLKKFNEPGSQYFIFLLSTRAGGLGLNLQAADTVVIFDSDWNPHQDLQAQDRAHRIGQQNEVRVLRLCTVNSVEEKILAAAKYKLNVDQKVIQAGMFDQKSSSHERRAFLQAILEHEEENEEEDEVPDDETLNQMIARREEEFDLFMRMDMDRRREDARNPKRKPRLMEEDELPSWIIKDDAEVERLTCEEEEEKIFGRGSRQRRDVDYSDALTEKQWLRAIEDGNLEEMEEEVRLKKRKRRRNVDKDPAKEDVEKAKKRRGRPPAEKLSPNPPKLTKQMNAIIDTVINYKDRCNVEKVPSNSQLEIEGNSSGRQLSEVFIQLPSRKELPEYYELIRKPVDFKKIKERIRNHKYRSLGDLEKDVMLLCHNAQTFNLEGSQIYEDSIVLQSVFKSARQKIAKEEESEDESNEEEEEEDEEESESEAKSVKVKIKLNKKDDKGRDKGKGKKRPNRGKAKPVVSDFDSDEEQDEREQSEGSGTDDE

Sequence of BRG-1 (P51532 whole entry): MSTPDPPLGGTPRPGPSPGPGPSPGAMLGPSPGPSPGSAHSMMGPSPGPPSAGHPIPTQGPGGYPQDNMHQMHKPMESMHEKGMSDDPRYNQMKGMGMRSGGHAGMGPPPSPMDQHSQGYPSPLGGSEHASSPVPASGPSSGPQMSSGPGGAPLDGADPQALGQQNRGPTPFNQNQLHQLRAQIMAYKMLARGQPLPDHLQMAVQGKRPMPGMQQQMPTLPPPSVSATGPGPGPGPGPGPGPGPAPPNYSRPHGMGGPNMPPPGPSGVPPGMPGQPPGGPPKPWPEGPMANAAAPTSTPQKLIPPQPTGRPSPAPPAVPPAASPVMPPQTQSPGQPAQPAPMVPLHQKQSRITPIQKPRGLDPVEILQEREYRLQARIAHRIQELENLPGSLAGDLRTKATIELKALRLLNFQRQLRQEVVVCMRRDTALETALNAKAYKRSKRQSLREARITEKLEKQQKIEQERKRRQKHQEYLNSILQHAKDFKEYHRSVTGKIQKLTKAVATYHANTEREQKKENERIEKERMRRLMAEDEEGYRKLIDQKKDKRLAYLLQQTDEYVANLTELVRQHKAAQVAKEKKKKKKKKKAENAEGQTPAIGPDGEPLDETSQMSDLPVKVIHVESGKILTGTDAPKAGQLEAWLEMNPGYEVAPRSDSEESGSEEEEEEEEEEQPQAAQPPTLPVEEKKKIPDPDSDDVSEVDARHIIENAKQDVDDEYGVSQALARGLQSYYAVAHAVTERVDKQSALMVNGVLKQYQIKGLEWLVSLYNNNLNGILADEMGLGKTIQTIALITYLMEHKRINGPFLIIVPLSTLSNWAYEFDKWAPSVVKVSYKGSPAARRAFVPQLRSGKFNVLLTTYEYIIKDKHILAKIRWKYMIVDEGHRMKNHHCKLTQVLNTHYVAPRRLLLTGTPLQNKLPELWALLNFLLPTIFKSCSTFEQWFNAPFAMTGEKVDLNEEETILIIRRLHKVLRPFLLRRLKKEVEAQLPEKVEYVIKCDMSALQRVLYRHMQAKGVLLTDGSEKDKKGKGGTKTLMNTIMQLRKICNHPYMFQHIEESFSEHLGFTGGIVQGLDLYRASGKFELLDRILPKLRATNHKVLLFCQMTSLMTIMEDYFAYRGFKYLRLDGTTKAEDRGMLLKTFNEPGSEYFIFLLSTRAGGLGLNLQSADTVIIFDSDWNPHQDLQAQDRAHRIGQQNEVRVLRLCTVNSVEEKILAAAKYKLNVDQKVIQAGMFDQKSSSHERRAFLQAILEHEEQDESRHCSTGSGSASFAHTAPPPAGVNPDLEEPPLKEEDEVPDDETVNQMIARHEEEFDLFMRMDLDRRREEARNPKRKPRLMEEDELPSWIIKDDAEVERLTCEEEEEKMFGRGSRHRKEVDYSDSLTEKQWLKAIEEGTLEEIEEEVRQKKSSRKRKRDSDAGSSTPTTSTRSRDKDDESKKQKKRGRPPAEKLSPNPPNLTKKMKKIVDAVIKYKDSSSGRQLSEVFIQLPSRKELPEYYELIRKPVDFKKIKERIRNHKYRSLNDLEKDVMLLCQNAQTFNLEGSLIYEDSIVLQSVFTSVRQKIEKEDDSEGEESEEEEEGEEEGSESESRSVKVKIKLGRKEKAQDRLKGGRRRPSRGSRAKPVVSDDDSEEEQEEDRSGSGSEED

Take `COc1nn(C(F)F)cc1-c1ccc2cnc(CNC(=O)c3ccc4c(c3)[C@](C)(C#N)COC4)cc2n1` [Compound 193]: on BRG-1, the half-inhibitory concentration (IC50) – broadly, the concentration that inhibits the measured activity by half – lay within 500 to 1000 nM and the Emax is 86%. On BRM, the “BRM Max % Inhibition” value amounted to 99% and the IC50 was below 0.1 µM.

As for `[2H]C1([2H])OC([2H])([2H])[C@@](C)(F)c2cc(C(=O)NCc3cc4nc(-c5cncc(C6CC6)n5)ccc4cn3)cnc21` [Compound 176], on BRG-1, the concentration for half-maximal inhibition (IC50) was in the range of 500 to 1000 nM and the Emax came to 83%. Besides, on BRM, the “BRM Max % Inhibition” value is reported as 98% and the 50% inhibitory concentration (IC50) was below 0.1 µM.

For the compound `C[C@@]1(C#N)COCc2ccc(C(=O)NCc3cc4cc(-c5nccc(N6CCC6)n5)cnc4cn3)cc21` [Compound 372], on BRG-1, the IC50 is above 1000 nM and the Emax was found to be 47%. Also, on BRM, the “BRM Max % Inhibition” value worked out at 93% and the concentration for half-maximal inhibition (IC50) was 0.1 to 0.5 µM.

As for `CN1CCCc2c(-c3ccc4cnc(CNC(=O)c5ccc6c(c5)[C@](C)(C#N)COC6)cc4n3)cccc21` [Compound 149], on BRG-1, the IC50 was in the range of 500 to 1000 nM and the Emax stood at 67%. Further, at BRM, the “BRM Max % Inhibition” value was found to be 95% and the concentration for half-maximal inhibition (IC50) is 0.1 to 0.5 µM.

In the case of `C[C@@]1(C#N)COCc2ccc(C(=O)NCc3cc4cc(-c5ccnc(N6CCC6)n5)ccc4nn3)cc21` [Compound 336], at BRG-1, the concentration for half-maximal inhibition (IC50) fell in the range of 100 to 500 nM and the Emax is 92%. Moreover, at BRM, the “BRM Max % Inhibition” value worked out at 99% and the half-inhibitory concentration (IC50) was below 0.1 µM.

On to `CN1Cc2cc(-c3ccc4cnc(CNC(=O)c5ccc6c(c5)[C@](C)(C#N)COC6)cc4n3)ccc2C1=O` [Compound 495], for which, at BRG-1, the IC50 lay within 100 to 500 nM and the Emax was 88%. In addition, on BRM, the “BRM Max % Inhibition” value was 99% and the IC50 was below 0.1 µM.

Regarding `CN(C)c1ncc(-c2ccc3cnc(CNC(=O)c4ccc5c(c4)[C@](C)(C#N)COC5)cc3n2)cn1` [Compound 472], at BRG-1, the IC50 is above 1000 nM and the Emax is 51%. On BRM, the “BRM Max % Inhibition” value was determined as 86% and the IC50 lay in the range of 0.1 to 0.5 µM.

Consider `C[C@@]1(C#N)COCc2ccc(C(=O)NCc3cc4nc(-c5cnc6cccnn56)ccc4cn3)cc21` [Compound 436], for which, on BRG-1, the IC50 fell in the range of 100 to 500 nM and the Emax amounted to 85%. On BRM, the “BRM Max % Inhibition” value came out at 100% and the IC50 is below 0.1 µM.

For the compound `C[C@@]1(C#N)COCc2ccc(C(=O)NCc3cc([C@@H]4C[C@H]4c4ccccc4)ccn3)cc21` [Compound 8], at BRG-1, the half-inhibitory concentration (IC50) is above 1000 nM and the Emax was determined as 9%. Moreover, on BRM, the “BRM Max % Inhibition” value is on record as 73% and the IC50 is above 1 µM.

In the case of `C[C@@]1(F)COCc2c(F)cc(C(=O)NCc3cc4cc(-c5cncc(N6CCC6)n5)ccc4cn3)cc21` [Compound 269], on BRG-1, the half-maximal inhibitory concentration (IC50) was 100 to 500 nM and the Emax is 97%. On BRM, the “BRM Max % Inhibition” value was 104% and the IC50 was below 0.1 µM.

On to `C[C@@]1(C#N)COCc2ccc(C(=O)NCc3cc4c(cn3)CCN(c3ccccn3)C4)cc21` [Compound 286], for which, at BRG-1, the IC50 was above 1000 nM and the Emax came out at 43%. Further, at BRM, the “BRM Max % Inhibition” value was 85% and the IC50 was in the range of 0.1 to 0.5 µM.

Consider `CC1(c2nccc(-c3ccc4cnc(CNC(=O)c5ccc6c(c5)[C@](C)(C#N)COC6)cc4n3)n2)COC1` [Compound 137], for which, at BRG-1, the IC50 was above 1000 nM and the Emax was determined as 39%. Further, on BRM, the “BRM Max % Inhibition” value came to 88% and the concentration for half-maximal inhibition (IC50) was in the range of 0.1 to 0.5 µM.

In the case of `C[C@@]1(C#N)COCc2ccc(C(=O)NCc3cc4nc(-c5ccn6nccc6n5)ccc4cn3)cc21` [Compound 447], at BRG-1, the IC50 lay in the range of 500 to 1000 nM and the Emax came to 84%. In addition, on BRM, the “BRM Max % Inhibition” value was found to be 95% and the IC50 lay within 0.1 to 0.5 µM.

On to `Cn1cc(-c2ccc3cnc(CNC(=O)c4ccc5c(c4)[C@](C)(F)COC5)cc3n2)c(C#N)n1` [Compound 305], for which, at BRG-1, the half-maximal inhibitory concentration (IC50) was above 1000 nM and the Emax was 40%. In addition, on BRM, the “BRM Max % Inhibition” value worked out at 87% and the IC50 was 0.1 to 0.5 µM.

For `COc1cc(N2CCC2)ccc1-c1ccc2cnc(CNC(=O)c3ccc4c(c3)[C@](C)(C#N)COC4)cc2n1` [Compound 146], on BRG-1, the half-maximal inhibitory concentration (IC50) was 100 to 500 nM and the Emax amounted to 80%. On BRM, the “BRM Max % Inhibition” value stood at 98% and the 50% inhibitory concentration (IC50) fell in the range of 0.1 to 0.5 µM.

On to `C[C@@]1(C#N)COCc2ccc(C(=O)NCc3cc4nc(-c5cccc(C6(O)COC6)c5)ccc4cn3)cc21` [Compound 479], for which, on BRG-1, the IC50 was 500 to 1000 nM and the Emax worked out at 72%. Moreover, on BRM, the “BRM Max % Inhibition” value came to 96% and the half-maximal inhibitory concentration (IC50) fell in the range of 0.1 to 0.5 µM.

Take `C[C@@]1(C#N)COCc2ccc(C(=O)NCc3cc(N4CCc5cc(C(F)F)ccc5C4)ccn3)cc21` [Compound 67]: at BRG-1, the half-maximal inhibitory concentration (IC50) lay in the range of 500 to 1000 nM and the Emax is 84%. On BRM, the “BRM Max % Inhibition” value was 97% and the IC50 fell in the range of 0.1 to 0.5 µM.

As for `C[C@@]1(C#N)COCc2ccc(C(=O)NCc3cc4nc(-c5cccc(C6(C(F)F)COC6)c5)ccc4cn3)cc21` [Compound 194], at BRG-1, the concentration for half-maximal inhibition (IC50) lay in the range of 500 to 1000 nM and the Emax is 60%. For the same compound, on BRM, the “BRM Max % Inhibition” value worked out at 93% and the half-inhibitory concentration (IC50) was 0.1 to 0.5 µM.

As to `C[C@@]1(C#N)COCc2ccc(C(=O)NCc3cc4c(cn3)CCN(c3ccnc(N5CCCC5)n3)C4)cc21` [Compound 331], on BRG-1, the 50% inhibitory concentration (IC50) was 500 to 1000 nM and the Emax turned out to be 73%. At BRM, the “BRM Max % Inhibition” value was found to be 97% and the IC50 was 0.1 to 0.5 µM.

Consider `COc1cc(C)ccc1-c1ccc2cnc(CNC(=O)c3ccc4c(c3)[C@](C)(C#N)COC4)cc2n1` [Compound 144], for which, at BRG-1, the IC50 was 100 to 500 nM and the Emax was found to be 95%. At BRM, the “BRM Max % Inhibition” value is on record as 102% and the IC50 was below 0.1 µM.

Take `C[C@@]1(C#N)COCc2ccc(C(=O)NCc3cc([C@H]4C[C@@H](c5cccc(N6CCOCC6)n5)C4)ccn3)cc21` [Compound 80]: at BRG-1, the IC50 is above 1000 nM and the Emax came out at 29%. Moreover, at BRM, the “BRM Max % Inhibition” value was 83% and the concentration for half-maximal inhibition (IC50) fell in the range of 0.1 to 0.5 µM.

On to `COc1ccncc1-c1ccc2cnc(CNC(=O)c3ccc4c(c3)[C@](C)(C#N)COC4)cc2n1` [Compound 489], for which, at BRG-1, the IC50 is 500 to 1000 nM and the Emax amounted to 76%. Also, at BRM, the “BRM Max % Inhibition” value is 97% and the IC50 is 0.1 to 0.5 µM.

As for `COc1nn(C)cc1-c1ccc2cnc(CNC(=O)c3ccc4c(c3)[C@](C)(F)COC4)cc2c1` [Compound 251], on BRG-1, the IC50 is 100 to 500 nM and the Emax was 91%. In addition, at BRM, the “BRM Max % Inhibition” value came out at 100% and the IC50 was below 0.1 µM.

Turning to `CN(C)c1cccc([C@H]2C[C@H](c3ccnc(CNC(=O)c4ccc5c(c4)[C@](C)(C#N)COC5)c3)C2)n1` [Compound 76], on BRG-1, the IC50 was above 1000 nM and the Emax came to 91%. Besides, on BRM, the “BRM Max % Inhibition” value turned out to be 98% and the IC50 lay in the range of 0.1 to 0.5 µM.

Turning to `C[C@@]1(C#N)COCc2ccc(C(=O)NCc3cc4nc(-c5ccnc(N6CC7CC(C6)O7)n5)ccc4cn3)cc21` [Compound 284], at BRG-1, the IC50 lay within 100 to 500 nM and the Emax was 93%. Also, on BRM, the “BRM Max % Inhibition” value turned out to be 99% and the half-inhibitory concentration (IC50) was below 0.1 µM.

In the case of `C[C@@]1(C#N)COCc2ccc(C(=O)NCc3cc4nn(-c5cccc(N6CCC6)n5)cc4cn3)cc21` [Compound 166], on BRG-1, the IC50 was above 1000 nM and the Emax was determined as 40%. For the same compound, at BRM, the “BRM Max % Inhibition” value is recorded as 91% and the concentration for half-maximal inhibition (IC50) lay within 0.1 to 0.5 µM.

In the case of `C[C@@]1(C#N)COCc2ccc(C(=O)NCc3cc4nc(-c5ccc(N6CCC6)nc5)ccc4cn3)cc21` [Compound 456], on BRG-1, the IC50 was in the range of 500 to 1000 nM and the Emax was 80%. For the same compound, on BRM, the “BRM Max % Inhibition” value is reported as 95% and the IC50 fell in the range of 0.1 to 0.5 µM.

On to `C[C@@H](O)c1cccc(-c2ccc3cnc(CNC(=O)c4cnc5c(c4)[C@](C)(F)COC5)cc3n2)n1` [Compound 212], for which, at BRG-1, the IC50 is above 1000 nM and the Emax was 39%. On BRM, the “BRM Max % Inhibition” value was 89% and the IC50 was in the range of 0.1 to 0.5 µM.

`CN1CCC(C(=O)N2CCN(c3cccc(-c4ccc5cnc(CNC(=O)c6ccc7c(c6)[C@](C)(C#N)COC7)cc5n4)n3)CC2)CC1` [Compound 287]: on BRG-1, the 50% inhibitory concentration (IC50) lay in the range of 500 to 1000 nM and the Emax is 99%. Moreover, at BRM, the “BRM Max % Inhibition” value was 99% and the 50% inhibitory concentration (IC50) is below 0.1 µM.

For `C[C@@]1(C#N)COCc2ccc(C(=O)NCc3cc4c(nn3)CCN(c3cccc(N5CCC5)n3)C4)cc21` [Compound 234], at BRG-1, the half-maximal inhibitory concentration (IC50) fell in the range of 500 to 1000 nM and the Emax was found to be 49%. Besides, at BRM, the “BRM Max % Inhibition” value is 96% and the 50% inhibitory concentration (IC50) fell in the range of 0.1 to 0.5 µM.

Turning to `C[C@@]1(C#N)COCc2ccc(C(=O)NCc3cc(N4CC5(CCN(c6ccccc6)C5)C4)ccn3)cc21` [Compound 12], at BRG-1, the IC50 is above 1000 nM and the Emax worked out at 22%. In addition, at BRM, the “BRM Max % Inhibition” value is listed as 79% and the concentration for half-maximal inhibition (IC50) was above 1 µM.

For `C[C@@]1(F)COCc2ccc(C(=O)NCc3cc4nc(N5CCN(C6CC6)S5(=O)=O)ccc4cn3)cc21` [Compound 279], on BRG-1, the concentration for half-maximal inhibition (IC50) lay within 500 to 1000 nM and the Emax was 67%. Further, at BRM, the “BRM Max % Inhibition” value is reported as 83% and the IC50 lay within 0.1 to 0.5 µM.

Turning to `C[C@@]1(F)COCc2ncc(C(=O)NCc3cc4nc(-c5ccnc(N6CCC6)c5F)ccc4cn3)cc21` [Compound 296], at BRG-1, the concentration for half-maximal inhibition (IC50) lay in the range of 100 to 500 nM and the Emax turned out to be 88%. Besides, on BRM, the “BRM Max % Inhibition” value came to 100% and the 50% inhibitory concentration (IC50) was below 0.1 µM.

With `CN1CCC(NC(=O)c2cccc(-c3ccc4cnc(CNC(=O)c5ccc6c(c5)[C@](C)(C#N)COC6)cc4n3)c2)CC1` [Compound 317], at BRG-1, the IC50 is above 1000 nM and the Emax was 96%. Also, on BRM, the “BRM Max % Inhibition” value is 100% and the IC50 was in the range of 0.1 to 0.5 µM.

The values above are taken from patent publication US12441726B2, “Compounds and uses thereof” (Foghorn Therapeutics Inc., priority 2020, dated 2025).
